Experimental data from ChEMBL document CHEMBL5053508, “Optimization of Beclin 1-Targeting Stapled Peptides by Staple Scanning Leads to Enhanced Antiproliferative Potency in Cancer Cells” (J Med Chem, 2021).
Active and inactive are the calls of the source. The calls are words filed in the database; no cut-off is given here.

Assays:
[1] = tested on: SK-BR-3; assay: Induction of apoptosis in human SK-BR-3 cells assessed as increase in cell death at 5 uM in presence of Z-VAD-FMK measured after 24 hrs by trypan blue exclusion assay; format: functional, cell-based
[2] = tested on: SK-BR-3; assay: Induction of apoptosis in human SK-BR-3 cells assessed as late apoptotic cells at 1 uM incubated for 24 hrs by flow cytometry with Annexin V-FITC/propidium iodide staining based flow cytometry assay (Rvb= 2.2%); format: functional
[3] = tested on: SK-BR-3; assay: Induction of apoptosis in human SK-BR-3 cells assessed as live cells at 1 uM measured after 24 hrs by annexin V-FITC/PI staining based flow cytometry analysis (Rvb= 90.6%); format: functional
[4] = tested on: SK-BR-3; assay: Induction of apoptosis in human SK-BR-3 cells assessed as early apoptotic cells at 1 uM measured after 24 hrs by annexin V-FITC/PI staining based flow cytometry analysis (Rvb= 2.2%); format: functional
[5] = tested on: SK-BR-3; assay: Induction of apoptosis in human SK-BR-3 cells assessed as dead cells at 1 uM measured after 24 hrs by annexin V-FITC/PI staining based flow cytometry analysis (Rvb= 5.0%); format: functional
[6] = tested on: SK-BR-3; assay: Antiproliferative activity against human SK-BR-3 cells assessed as reduction in cell growth at 20 uM incubated for 5 days by trypan blue exclusion assay relative to control; format: functional; set-up: scale not given: the % may be the effect or the level left; details: time 5 day
[7] = tested on: SK-BR-3; assay: Induction of apoptosis […] in human SK-BR-3 cells assessed as late apoptotic cells at 5 uM incubated for 24 hrs by flow cytometry with Annexin V-FITC/propidium iodide staining based flow cytometry analysis (Rvb= 2.2%); format: functional
[8] = tested on: SK-BR-3; assay: Induction of apoptosis in human SK-BR-3 cells assessed as late apoptotic cells at 10 uM incubated for 24 hrs by flow cytometry with Annexin V-FITC/propidium iodide staining based flow cytometry assay (Rvb= 2.2%); format: functional
[9] = tested on: SK-BR-3; assay: Induction of apoptosis in human SK-BR-3 cells assessed as late apoptotic cells at 20 uM incubated for 24 hrs by flow cytometry with Annexin V-FITC/propidium iodide staining based flow cytometry assay (Rvb= 2.2%); format: functional
[10] = tested on: SK-BR-3; assay: Induction of apoptosis in human SK-BR-3 cells assessed as late apoptotic cells at 40 uM incubated for 24 hrs by flow cytometry with Annexin V-FITC/propidium iodide staining based flow cytometry assay (Rvb= 2.2%); format: functional
[11] = tested on: SK-BR-3; assay: Induction of apoptosis in human SK-BR-3 cells assessed as live cells at 5 uM measured after 24 hrs by annexin V-FITC/PI staining based flow cytometry analysis (Rvb= 90.6%); format: functional
[12] = tested on: SK-BR-3; assay: Induction of apoptosis in human SK-BR-3 cells assessed as early apoptotic cells at 5 uM measured after 24 hrs by annexin V-FITC/PI staining based flow cytometry analysis (Rvb= 2.2%); format: functional
[13] = tested on: SK-BR-3; assay: Induction of apoptosis in human SK-BR-3 cells assessed as dead cells at 5 uM measured after 24 hrs by annexin V-FITC/PI staining based flow cytometry analysis (Rvb= 5.0%); format: functional
[14] = tested on: SK-BR-3; assay: Induction of apoptosis in human SK-BR-3 cells assessed as live cells at 10 uM measured after 24 hrs by annexin V-FITC/PI staining based flow cytometry analysis (Rvb= 90.6%); format: functional
[15] = tested on: SK-BR-3; assay: Induction of apoptosis in human SK-BR-3 cells assessed as early apoptotic cells at 10 uM measured after 24 hrs by annexin V-FITC/PI staining based flow cytometry analysis (Rvb= 2.2%); format: functional
[16] = tested on: SK-BR-3; assay: Induction of apoptosis in human SK-BR-3 cells assessed as dead cells at 10 uM measured after 24 hrs by annexin V-FITC/PI staining based flow cytometry analysis (Rvb= 5.0%); format: functional
[17] = tested on: SK-BR-3; assay: Induction of apoptosis in human SK-BR-3 cells assessed as live cells at 20 uM measured after 24 hrs by annexin V-FITC/PI staining based flow cytometry analysis (Rvb= 90.6%); format: functional
[18] = tested on: SK-BR-3; assay: Induction of apoptosis in human SK-BR-3 cells assessed as early apoptotic cells at 20 uM measured after 24 hrs by annexin V-FITC/PI staining based flow cytometry analysis (Rvb= 2.2%); format: functional
[19] = tested on: SK-BR-3; assay: Induction of apoptosis in human SK-BR-3 cells assessed as dead cells at 20 uM measured after 24 hrs by annexin V-FITC/PI staining based flow cytometry analysis (Rvb= 5.0%); format: functional
[20] = tested on: SK-BR-3; assay: Induction of apoptosis in human SK-BR-3 cells assessed as live cells at 40 uM measured after 24 hrs by annexin V-FITC/PI staining based flow cytometry analysis (Rvb= 90.6%); format: functional
[21] = tested on: SK-BR-3; assay: Induction of apoptosis in human SK-BR-3 cells assessed as early apoptotic cells at 40 uM measured after 24 hrs by annexin V-FITC/PI staining based flow cytometry analysis (Rvb= 2.2%); format: functional
[22] = tested on: SK-BR-3; assay: Induction of apoptosis in human SK-BR-3 cells assessed as dead cells at 40 uM measured after 24 hrs by annexin V-FITC/PI staining based flow cytometry analysis (Rvb= 5.0%); format: functional
[23] = target: T1, Beclin-1 (Homo sapiens, UniProt Q14457); assay: Binding affinity to Beclin 1 coiled coil domain (unknown origin) by isothermal titration calorimetry assay
T1 sequence (Q14457 whole entry, the tested form may be a part): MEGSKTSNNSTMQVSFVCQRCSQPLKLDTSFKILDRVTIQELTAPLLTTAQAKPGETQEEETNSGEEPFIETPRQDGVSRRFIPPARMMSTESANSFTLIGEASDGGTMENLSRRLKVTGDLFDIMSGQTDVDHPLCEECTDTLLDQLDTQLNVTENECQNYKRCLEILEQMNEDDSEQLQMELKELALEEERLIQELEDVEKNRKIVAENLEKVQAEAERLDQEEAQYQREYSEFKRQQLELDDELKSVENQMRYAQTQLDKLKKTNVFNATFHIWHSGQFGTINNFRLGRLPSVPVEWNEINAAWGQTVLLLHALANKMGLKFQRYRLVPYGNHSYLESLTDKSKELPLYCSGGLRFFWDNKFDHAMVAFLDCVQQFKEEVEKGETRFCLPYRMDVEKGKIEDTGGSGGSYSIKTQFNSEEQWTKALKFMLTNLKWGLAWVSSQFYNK

[24] = target: T1, Beclin-1; assay: Inhibition of FLAG-tagged Beclin 1 self-association in HEK293T cells cotransfected with GFP assessed as reduction in beclin 1- GFP pull down by FLAG-beclin 1 by coimmunoprecipitation assay; format: cell-based
[25] = tested on: HEK293T; assay: Induction of FLAG tagged Beclin 1- Atg14L interaction in HEK293T cells assessed as increase in endogenous beclin 1 pull down at 10 to 20 uM by coimmunoprecipitation assay; format: cell-based; details: Homo sapiens, dose 10-20 µM
[26] = tested on: HEK293T; assay: Induction of FLAG tagged Beclin 1- Atg14L interaction in HEK293T cells assessed as increase in endogenous beclin 1 pull down at 30 uM by coimmunoprecipitation assay; format: cell-based; details: Homo sapiens
[27] = target: Receptor tyrosine-protein kinase erbB-2 (Homo sapiens) (UniProt P04626); assay: Induction of endolysosomal trafficking of HER2 in human SK-BR-3 cells assessed as EGF-induced degradation of HER2 at 2 uM measured after 24 hrs post-EGF stimulation by western blot analysis relative to control; format: cell-based
Sequence of Receptor tyrosine-protein kinase erbB-2 (Homo sapiens) (P04626 whole entry): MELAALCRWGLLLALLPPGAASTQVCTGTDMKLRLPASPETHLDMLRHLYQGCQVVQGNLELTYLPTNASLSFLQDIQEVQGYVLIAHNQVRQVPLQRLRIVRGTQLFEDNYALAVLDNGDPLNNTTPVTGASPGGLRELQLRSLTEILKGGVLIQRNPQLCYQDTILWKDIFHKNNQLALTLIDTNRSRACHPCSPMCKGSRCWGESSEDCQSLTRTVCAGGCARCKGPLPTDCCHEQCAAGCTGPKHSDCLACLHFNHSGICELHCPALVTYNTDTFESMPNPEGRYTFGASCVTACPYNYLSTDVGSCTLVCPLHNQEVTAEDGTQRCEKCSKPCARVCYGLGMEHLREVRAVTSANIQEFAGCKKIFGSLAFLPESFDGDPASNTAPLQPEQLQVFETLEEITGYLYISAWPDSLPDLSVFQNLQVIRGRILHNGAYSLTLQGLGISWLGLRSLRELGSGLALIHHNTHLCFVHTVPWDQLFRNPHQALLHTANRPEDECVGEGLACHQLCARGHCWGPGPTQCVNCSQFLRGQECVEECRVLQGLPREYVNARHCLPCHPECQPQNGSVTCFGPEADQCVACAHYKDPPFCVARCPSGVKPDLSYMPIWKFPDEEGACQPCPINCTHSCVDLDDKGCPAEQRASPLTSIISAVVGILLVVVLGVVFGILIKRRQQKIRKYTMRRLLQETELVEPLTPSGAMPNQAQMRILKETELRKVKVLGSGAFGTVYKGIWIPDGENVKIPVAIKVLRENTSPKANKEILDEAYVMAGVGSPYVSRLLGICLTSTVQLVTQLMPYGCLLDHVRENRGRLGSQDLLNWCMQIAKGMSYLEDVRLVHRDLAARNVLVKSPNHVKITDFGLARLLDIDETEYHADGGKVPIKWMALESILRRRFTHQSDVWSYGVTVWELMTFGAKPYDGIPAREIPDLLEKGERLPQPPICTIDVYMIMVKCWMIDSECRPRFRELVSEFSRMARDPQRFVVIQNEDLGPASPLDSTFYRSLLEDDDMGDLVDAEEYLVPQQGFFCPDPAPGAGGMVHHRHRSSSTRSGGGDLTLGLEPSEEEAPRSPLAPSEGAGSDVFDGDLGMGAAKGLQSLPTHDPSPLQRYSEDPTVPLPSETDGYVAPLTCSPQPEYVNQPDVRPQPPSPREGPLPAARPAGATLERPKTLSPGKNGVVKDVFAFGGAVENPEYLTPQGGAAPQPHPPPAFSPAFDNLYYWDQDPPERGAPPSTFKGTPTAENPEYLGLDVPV

[28] = target: Receptor tyrosine-protein kinase erbB-2 (Homo sapiens) (UniProt P04626); assay: Induction of endolysosomal trafficking of HER2 in human SK-BR-3 cells assessed as EGF-induced degradation of HER2 at 2 uM measured after 15 hrs post-EGF stimulation by western blot analysis relative to control; format: cell-based
[29] = tested on: HEK293T; assay: Induction of Beclin 1- FLAG tagged UVRAG interaction in HEK293T cells assessed as endogenous beclin 1 pull down at 10 uM by coimmunoprecipitation assay; format: cell-based; details: Homo sapiens
[30] = tested on: HEK-293T; assay: Cytotoxicity against HEK293T cells assessed as reduction in cell viability at 10 to 20 uM measured after 24 hrs by trypan blue exclusion assay; format: cell-based; details: human, dose 10-20 µM
[31] = tested on: HEK-293T; assay: Induction of autophagy in HEK293T cells assessed as increase in LC3-II protein level at 10 to 20 uM incubated for 3 hrs by western blot analysis; format: functional, cell-based; details: Homo sapiens, dose 10-20 µM
[32] = tested on: HEK-293T; assay: Induction of autophagy in human HEK293T cells assessed as increase in LC3-II protein level at 10 to 20 uM in presence of chloroquine measured after 3 hrs by western blot analysis; format: functional, cell-based; details: dose 10-20 µM
[33] = tested on: HEK-293T; assay: Induction of autophagy in human HEK293T cells assessed as increase in p62 protein level at 10 to 20 uM measured after 3 hrs by western blot analysis; format: functional, cell-based; details: dose 10-20 µM
[34] = tested on: HEK-293T; assay: Induction of autophagy in human HEK293T cells assessed as increase in p62 protein level at 10 to 20 uM in presence of chloroquine measured after 3 hrs by western blot analysis; format: functional, cell-based; details: dose 10-20 µM
[35] = target: Epidermal growth factor receptor (Homo sapiens) (UniProt P00533); assay: Induction of endolysosomal trafficking of EGFR in human SK-BR-3 cells assessed as EGF-induced degradation of EGFR at 2 uM measured after 15 hrs post-EGF stimulation by western blot analysis relative to control; format: cell-based
Sequence of Epidermal growth factor receptor (Homo sapiens) (P00533 whole entry): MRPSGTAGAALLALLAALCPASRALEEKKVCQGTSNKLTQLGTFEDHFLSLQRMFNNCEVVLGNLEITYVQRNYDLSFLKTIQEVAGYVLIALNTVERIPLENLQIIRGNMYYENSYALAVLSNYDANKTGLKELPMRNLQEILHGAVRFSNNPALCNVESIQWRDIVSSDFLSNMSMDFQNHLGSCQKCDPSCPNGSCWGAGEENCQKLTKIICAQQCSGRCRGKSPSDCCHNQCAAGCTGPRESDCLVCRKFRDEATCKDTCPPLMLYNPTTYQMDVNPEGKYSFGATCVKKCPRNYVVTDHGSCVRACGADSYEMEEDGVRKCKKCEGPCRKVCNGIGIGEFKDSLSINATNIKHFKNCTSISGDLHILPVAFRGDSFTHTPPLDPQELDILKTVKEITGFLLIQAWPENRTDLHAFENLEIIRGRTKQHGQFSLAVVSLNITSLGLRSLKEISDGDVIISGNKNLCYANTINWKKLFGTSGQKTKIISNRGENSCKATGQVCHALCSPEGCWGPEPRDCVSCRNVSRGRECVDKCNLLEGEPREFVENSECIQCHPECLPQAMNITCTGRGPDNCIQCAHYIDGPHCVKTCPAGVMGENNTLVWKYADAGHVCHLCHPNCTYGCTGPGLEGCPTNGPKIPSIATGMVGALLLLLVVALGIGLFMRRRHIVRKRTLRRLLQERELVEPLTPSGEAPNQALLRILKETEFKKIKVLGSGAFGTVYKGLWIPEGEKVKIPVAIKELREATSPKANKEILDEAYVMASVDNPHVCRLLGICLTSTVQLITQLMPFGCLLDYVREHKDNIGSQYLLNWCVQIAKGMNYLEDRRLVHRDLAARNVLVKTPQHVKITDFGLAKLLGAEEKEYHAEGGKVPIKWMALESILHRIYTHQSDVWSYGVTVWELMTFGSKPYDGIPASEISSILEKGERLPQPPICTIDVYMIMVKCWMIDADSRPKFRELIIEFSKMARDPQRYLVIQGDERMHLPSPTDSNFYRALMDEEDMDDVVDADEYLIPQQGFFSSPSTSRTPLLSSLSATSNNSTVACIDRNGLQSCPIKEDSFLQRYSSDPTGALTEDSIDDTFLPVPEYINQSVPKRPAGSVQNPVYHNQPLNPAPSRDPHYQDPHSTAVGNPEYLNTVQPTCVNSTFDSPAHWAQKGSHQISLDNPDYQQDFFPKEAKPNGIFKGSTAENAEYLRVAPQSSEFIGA

[36] = tested on: SK-BR-3; assay: Antiproliferative activity against human SK-BR-3 cells assessed as reduction in cell growth incubated for 5 days by trypan blue exclusion assay; format: functional, cell-based; details: time 5.0 day
[37] = tested on: SK-BR-3; assay: Induction of apoptosis in human SK-BR-3 cells assessed as increase in cell death at 10 uM in presence of Z-VAD-FMK measured after 24 hrs by trypan blue exclusion assay; format: functional, cell-based
[38] = tested on: SK-BR-3; assay: Induction of apoptosis in human SK-BR-3 cells assessed as increase in cleaved PARP level at 10 uM incubated for 24 hrs by western blot analysis; format: functional, cell-based
[39] = tested on: SK-BR-3; assay: Induction of apoptosis in human SK-BR-3 cells assessed as increase in cleaved caspase-3 level at 10 uM incubated for 24 hrs by western blot analysis; format: functional, cell-based
[40] = tested on: SK-BR-3; assay: Antiproliferative activity against human SK-BR-3 cells assessed as reduction of cell growth measured after 24 hrs by trypan blue exclusion assay; details: SK-BR-3, 24 h

Structure (SMILES): COc1cccc2c1C(=O)c1c(O)c3c(c(O)c1C2=O)C[C@@](O)(C(=O)CO)C[C@@H]3O[C@H]1C[C@H](N)[C@H](O)[C@H](C)O1 [DOXORUBICIN]
- Activity [1]: inactive
- Activity [2]: 18.7%
- Activity [3]: 48.1%
- Activity [4]: 16.5%
- Activity [5]: 16.7%

Structure (SMILES): CC[C@H](C)[C@H](NC(=O)[C@H](CC(C)C)NC(=O)[C@H](CCCNC(=N)N)NC(=O)[C@H](CCCNC(=N)N)NC(=O)[C@H](CCCNC(=N)N)NC(=O)[C@H](CCCNC(=N)N)NC(=O)[C@H](CCC(N)=O)NC(=O)[C@H](CCCNC(=N)N)NC(=O)[C@H](CCCNC(=N)N)NC(=O)[C@H](CCCCN)NC(=O)[C@H](CCCCN)NC(=O)[C@H](CCCNC(=N)N)NC(=O)CNC(=O)[C@H](Cc1ccc(O)cc1)NC(C)=O)C(=O)N[C@@H](CO)C(=O)N[C@@H](CCC(=O)O)C(=O)N[C@@H](CC(C)C)C(=O)N[C@@H]1CCCCCC/C=C/CCC[C@@H](C(=O)N[C@@H](C)C(N)=O)NC(=O)[C@H](CCCNC(=N)N)NC(=O)[C@H](CCC(N)=O)NC(=O)[C@H](CCCCN)NC(=O)[C@H](CCC(=O)O)NC(=O)[C@H](CCCNC(=N)N)NC(=O)[C@H](CC(=O)O)NC1=O
- Activity [6]: 30%
- Activity [7]: 8.2%
- Activity [8]: 8.1%
- Activity [9]: 6.1%
- Activity [10]: 21.6%
- Activity [11]: 91%
- Activity [12]: 0.2%
- Activity [13]: 0.4%
- Activity [14]: 90.6%
- Activity [15]: 0.2%
- Activity [16]: 0.8%
- Activity [17]: 89%
- Activity [18]: 1.1%
- Activity [19]: 3.5%
- Activity [20]: 76.1%
- Activity [21]: 0.8%
- Activity [22]: 1.5%

Structure (SMILES): CC[C@H](C)[C@@H]1NC(=O)[C@H](C(C)C)NC(=O)[C@H](CC(=O)O)NC(=O)[C@H](C(C)C)NC(=O)[C@H](CC(C)C)NC(=O)[C@H](NC(=O)[C@H](CC(N)=O)NC(=O)[C@H](Cc2ccccc2)NC(=O)[C@H](CC(C)C)NC(=O)[C@@H](NC(=O)[C@H](CCCNC(=N)N)NC(=O)[C@H](CCCNC(=N)N)NC(=O)[C@H](CCCNC(=N)N)NC(=O)[C@H](CCC(N)=O)NC(=O)[C@H](CCCNC(=N)N)NC(=O)[C@H](CCCNC(=N)N)NC(=O)[C@H](CCCCN)NC(=O)[C@H](CCCCN)NC(=O)[C@H](CCCNC(=N)N)NC(=O)CNC(=O)[C@H](Cc2ccc(O)cc2)NC(C)=O)C(C)C)CCCCCC/C=C/CCC[C@@H](C(=O)N[C@@H](CCCNC(=N)N)C(=O)N[C@@H](CCCCN)C(=O)N[C@H](C(N)=O)C(C)C)NC(=O)[C@H](CCCCN)NC1=O
- Kd [23]: 0.33 µM
- inhibition [24]: Dose-dependent effect
- Activity [25]: inactive
- Activity [26]: Active
- Activity [27]: 70%
- Activity [28]: 50%
- Activity [29]: Active
- Activity [30]: Non-Toxic
- Activity [31]: Active
- Activity [32]: Active
- Activity [33]: inactive
- Activity [34]: inactive
- Activity [35]: 60%
- Activity [36]: Dose-dependent effect
- Activity [7]: 13.3%
- Activity [37]: Active
- Activity [38]: inactive
- Activity [8]: 29.5%
- Activity [39]: inactive
- IC50 [40]: 7.12 µM
- Activity [11]: 81.1%
- Activity [12]: 2%
- Activity [13]: 0.6%
- Activity [14]: 69%
- Activity [15]: 0.3%
- Activity [16]: 1.2%
